Assay results: patent US20050054103A1, “Expansion of renewable stem cell populations using modulators of PI 3-kinase” (priority 2003, published 2005)

Legend:
[1] = test system: Normal human erythroid cells; assay: Human erythroid two-phase liquid culture; assay type: cell-based; details: TEPA 10 μM in second phase, after 14 days
Protocol: Peripheral blood mononuclear cells, obtained from an adult normal donor, were cultured in the erythroid two-phase liquid culture system (23-25). The second phase of the culture was supplemented either without or with 10 μM of TEPA. Cultures were analyze for total cells and hemoglobin-containing [benzidine positive (B^+)] cells after 14 days.
Human erythroid cell cultures: Normal human erythroid cells were grown according to the two-phase liquid culture procedure, essentially as described in references 67-70. In the first phase, peripheral blood mononuclear cells were incubated in the presence of early growth factors for 5-7 days. In the second phase, these factors were replaced by the erythroid specific proliferation/differentiation factor, erythropoietin.
The cultures were supplemented with TEPA at the initiation of the second phase. The total cell number and the percentage of hemoglobin-containing cells were determined after 14 days.

CD34 cells = assay: Transition metal chelators in CD34+ cell liquid cultures (cell number, CD34 cells, clonability); assay type: cell-based, human; details: for Cells/ml (×10^4): FL, SCF, IL-6 50 ng/ml; for CFU expansion (fold): CFU day 7 / CFU day 0
Protocol: The interphase layer of mononuclear cells were collected, washed three times with Ca/Mg free phosphate buffered saline containing 1% bovine serum albumin (BSA). The cells were incubated for 30 min. at 4° C. with murine monoclonal anti CD34 antibody (0.5 μg/10^6 mononuclear cells) and thereafter isolated using the miniMACS apparatus (Miltenyi-Biotec, Bergisch, Gladbach, Germany) according to the manufacturer's protocol.
Culture procedures: For the expansion of progenitor cells, CD34^+ enriched fractions or unseparated mononuclear cells were seeded at about 1-3×10^4 cells/ml in either alpha minimal essential medium containing 10% preselected fetal calf serum (FCS) (both from GIBCO, Grand Island, N.Y.), or serum-free medium (Progenitor-34 medium, Life Technologies, Grand Island, N.Y.). The media were supplemented with a mixture of growth factors and transition metal chelators. The cultures were incubated at 37° C. in an atmosphere of 5% CO2 in air with extra humidity. Half of the medium was changed weekly with fresh medium containing all the supplements.
Cloning potential evaluations: The cloning potential of cells developed in the liquid culture was assayed, at different intervals, in semi-solid medium. The cells were washed and seeded in 35 mm dishes in methylcellulose containing alpha medium supplemented with recombinant growth factors (SCF, G-CSF, GM-CSF and EPO). Following 2 weeks incubation, the cultures were scored with an inverted microscope. Colonies were classified as blast, mixed, erythroid, myeloid, and megakaryocytic, according to their cellular composition.
Morphological assessment: In order to characterize the resulting culture populations, aliquots of cells were deposited on a glass slide (cytocentrifuge, Shandon, Runcorn, UK), fixed and stained in May-Grunwald Giemsa. Other aliquots were stained by benzidine for intracellular hemoglobin.
Immunofluorescence staining: At different intervals, cells from the liquid cultures were assayed for CD34 antigen. Aliquots were harvested, washed and incubated on ice with FITC-labeled anti CD45 monoclonal antibody and either PE-labeled anti CD34 (HPCA-2) monoclonal antibody or PE-labeled control mouse Ig. After incubation, red cells were lysed with lysing solution, while the remaining cells were washed and analyzed by flow cytometer.
Flow cytometry: Cells were analyzed and sorted using FACStar^plus flow cytometer (Becton-Dickinson, Immunofluorometry systems, Mountain View, Calif.). Cells were passed at a rate of 1,000 cells/second through a […] nozzle, using saline as the sheath fluid. […] The PMTs was set at the appropriate voltage. Logarithmic amplification was applied for measurements of fluorescence and linear amplification—for forward light scatter. At least 10^4 cells were analyzed.
Cord blood-derived CD34 cells were plated in liquid culture in the presence of: FL—50 ng/ml, SCF—50 ng/ml, IL-6—50 ng/ml, with or without IL-3—20 ng/ml, with or without TEPA—10 μM. On day 7, the percentage of CD34 cells and the total cell number were determined. Aliquots equivalent to 1×10^3 initiating cells were assayed on days 0 and 7 for colony forming cells (CFU) by cloning in semi-solid medium. CFU expansion represents the ratio of CFU present on day 7 to CFU present on day 0.
CD34^+ cells derived from human neonatal cord blood were purified by immunomagnetic method and then cultured in liquid medium supplemented with cytokines either with or without transition metal chelators. At weekly intervals, the cultures were demi-depopulated by removing half of the culture content (supernatant and cells) and replacing it with fresh medium, cytokines and the chelators. At the indicated weeks the cellular content of the cultures were quantified for total cells (by a manual microscopic/hemocytometric method), for CD34^+ cells (by immuno-flow cytometry) and for clonogenic cells (by cloning the cells in cytokine-supplemented semi-solid medium).

[2] = test system: lethally irradiated Balb/c X C57B1/6 F1 mice; assay: Hematopoietic reconstitution of lethally irradiated mice, fresh vs. ex-vivo expanded cells; assay type: in vivo
Protocol: Hematopoietic reconstitution of lethally irradiated mice—fresh vs. ex-vivo expanded cells: Three month old female Balb/c X C57B1/6 F1 mice were lethally irradiated (1000 rad) and transplanted one day later with 1×10^5 fresh bone marrow cells or the yield of 1×10^5 bone marrow cells expanded ex-vivo either with or without TEPA for 3 to 5 weeks, as detailed in Table 12. Peripheral blood WBC counts were performed on weekly basis.

[3] = TEPA 10 μM, without IL-3, day 7
[4] = Exp. I, 3 weeks ex-vivo with TEPA + cytokines, day 13
[5] = Exp. I, 3 weeks ex-vivo with TEPA + cytokines, day 19
[6] = Exp. II, 3 weeks ex-vivo with TEPA + cytokines, day 11
[7] = Exp. II, 3 weeks ex-vivo with TEPA + cytokines, day 29
[8] = Exp. III, 5 weeks ex-vivo with TEPA + cytokines, day 6
[9] = Exp. III, 5 weeks ex-vivo with TEPA + cytokines, day 11

## NCCNCCNCCNCCN [TEPA, tetraethylenepentamine]
[1]
  hemoglobin-containing cells: sharp decrease
  total number of cells: decreased only slightly
CD34 cells
  effect on differentiation of CD34+ cells: inhibit differentiation
CD34 cells; TEPA 10 μM, with IL-3 20 ng/ml, day 7
  Cells/ml (×10^4): 11 ×10^4
CD34 cells; [3]
  Cells/ml (×10^4): 2 ×10^4
  CD34 cells (%): 11.5%
  Colonies (Per 1 × 10^3 initiating cells): 140
CD34 cells; TEPA 10 μM, with IL-3, day 7
  CD34 cells (%): 20%
  Colonies (Per 1 × 10^3 initiating cells): 850
CD34 cells; TEPA 10 μM, with IL-3
  CFU expansion (fold): 17 fold
CD34 cells; TEPA 10 μM, without IL-3
  CFU expansion (fold): 2.8 fold
CD34 cells; after 6 weeks
  CFUc expansion: 120 fold
CD34 cells; after 6 weeks, started with 2.5×10^3 CFUc
  CFUc content of cultures: 300×10^3 CFUc
CD34 cells; early-acting cytokines, no stromal cells, TEPA 10 μM
  time long-term CD34 cultures could be maintained: > 6 weeks
CD34 cells; long term cultures with early cytokines
  cell proliferation and CFUc expansion in long-term CD34 cultures: more effective than the short-chain polyamines
CD34 cells; polyamine chelating agents, long-term CD34 cultures (FIGS. 39a-b)
  concentration with optimal activity: 40 µM
CD34 cells; transition metal chelating agents, long-term CD34 cultures (FIGS. 40a-b)
  concentration with optimal activity: 10 µM
[2]; [4]
  Survival: 5/5
  WBC × 10^6/ml: 0.7 × 10^6/ml
[2]; [5]
  Survival: 5/5
  WBC × 10^6/ml: 1.5 × 10^6/ml
[2]; [6]
  Survival: 5/5
  WBC × 10^6/ml: 0.92 × 10^6/ml
[2]; [7]
  Survival: 5/5
  WBC × 10^6/ml: 10.8 × 10^6/ml
[2]; [8]
  Survival: 5/5
  WBC × 10^6/ml: 0.69 × 10^6/ml
[2]; [9]
  Survival: 5/5
  WBC × 10^6/ml: 1.27 × 10^6/ml
[2]; Exp. III, 5 weeks ex-vivo with TEPA + cytokines, day 19
  Survival: 4/5
[2]; Exp. III, 5 weeks ex-vivo with TEPA + cytokines, day 27
  Survival: 4/5
[2]; bone marrow cells expanded ex-vivo in the presence of TEPA
  WBC recovery vs fresh cells or cells expanded without TEPA: faster
